Assay results as given in the METLIN SMRT retention time set (Domingo-Almenara et al. 2019).

Test: gradient 5% acetonitrile 3 min, to 50% in 2 min, to 85% in 15 min, held 3 min, 100 µL/min
Conditions: column: Zorbax Extend-C18 2.1 x 50 mm; eluents: water / acetonitrile, 0.1% formic acid
Summary of the method: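 Pure standards were run in mixtures of ~100 molecules by HPLC coupled to a quadrupole time-of-flight mass spectrometer. The column was a Zorbax Extend-C18 (2.1 × 50 mm, 1.8 μm) at 100 μL/min, with water and acetonitrile each containing 0.1% formic acid, in positive and negative ionization mode. Dead and dwell volumes were 40 μL and 900 μL. Retention time was taken from computationally picked adduct peaks, each manually inspected, with data collected over 3 months.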

SMILES	RP-LC retention time [s]
O=C(c1ccc(Cl)nc1)N1CCCC1c1nc(-c2cccc(C(F)(F)F)c2)no1 (stereo not drawn)	1070
CCOC(=O)c1c(C)oc2nc(C)nc(NCCCN3CCN(c4ccccc4OC)CC3)c12	596
CC1CCc2nn(CC(=O)NCCN3CCCCCC3)cc2C1 (stereo not drawn)	605
CCc1ccc(CNC(=O)c2cccc(C3CCCN(C(=O)NC)C3)c2)cc1 (stereo not drawn)	854
Cc1ccc(CNc2nc3ccncc3n(C(C)C)c2=O)cc1	701
O=C(Nc1cc(F)ccc1F)C1CCN(S(=O)(=O)c2cccnc2)CC1	784
Cc1ccc(N2CCN(C(=O)c3ccc4c(c3)CC(=O)N4C)CC2)cc1	796
Cc1ccc(N2C(=O)CN(S(=O)(=O)c3ccc(C)cc3)CC2(C)C(=O)NC2CCCC2)cc1 (stereo not drawn)	983
COc1ccc(-c2onc(C)c2C)cc1S(=O)(=O)N1CCN(c2ccccn2)CC1	683
Cc1nn(C(C)C(=O)NCCN2CCOCC2)c(=O)c2nn(-c3ccccc3)c(C)c12 (stereo not drawn)	615
Cc1cc(C)cc(C(=O)Nc2cnc(N3CCOCC3)nc2)c1	824
Cc1ccc(NC(=O)NC(C)C(=O)N2CCc3ccccc32)c(Cl)c1 (stereo not drawn)	967
CCn1ncc(N2CCCC(CC(=O)N3CCC4(CC3)OCCO4)C2)cc1=O (stereo not drawn)	646
Cc1sc(-c2nnc(C3CC3)o2)cc1NC(=O)Cc1ccccc1F	944
CCC(C)CN(CC(=O)N1CCc2sccc2C1COc1ccc(F)cc1)C(=O)COC (stereo not drawn)	962
CC(C)n1c(=O)oc2cc(-c3noc(CCc4ccccc4)n3)ccc21	1140
CN(C)C(=O)C1CCN(c2nc3ccc(-c4ccccc4)nc3s2)CC1	888
Cc1ccc(NC(=O)NCC(c2cccnc2)c2c[nH]c3ccccc23)c(C)c1 (stereo not drawn)	683
COc1ccc(-c2cn3c(CC(=O)N4c5ccccc5CC4C)csc3n2)cc1OC (stereo not drawn)	797
CCc1c(C2CCN(C(=O)C3COc4ccccc4O3)CC2)noc1N (stereo not drawn)	684
COc1ccc(S(=O)(=O)Cc2nc(-c3ccccc3C)no2)cc1OC	882
Cc1cc(C)n(CCNC(=O)c2c(F)cccc2F)n1	607

SMILES	RP-LC retention time [s]
COc1cc(C(=O)NC2CCCNC2)cc(OC)c1OC (stereo not drawn)	621
CCn1nccc1C(=O)NC1CCN(C2=NS(=O)(=O)C(c3ccccc3)=C2C)CC1	764
O=C(NCc1ccc(F)cc1)C1CCN(S(=O)(=O)c2cc(-c3noc(C4CC4)n3)cs2)CC1	958
O=C(NCCCN1CCCC1)c1ccc2c(c1)NC(=O)C1CCCCN21 (stereo not drawn)	588
Fc1ccc(-c2nnc(Cc3nc(-c4ccc(F)c(F)c4)no3)o2)cc1	1030
COc1ccc(Cl)cc1CC1C(=O)Nc2ccccc21 (stereo not drawn)	921
COCCNC(=O)C1(C)CCC(=O)N1CCc1c[nH]c2ccccc12 (stereo not drawn)	653
Nc1nc(-c2ccccc2)nn1C(=O)c1ccc(F)cc1	974
CS(=O)(=O)N1CCCc2cc(C(=O)N3CCC(C(N)=O)CC3)ccc21	604
COc1ccc(C(=O)N2CCN(S(=O)(=O)c3cc4c5c(c3)CCC(=O)N5CCC4)CC2)cc1	779
CC1CCN(c2cc(N3CCN(C)CC3)ccc2NC(=O)c2cc(C#N)c[nH]2)CC1	595
CCn1c(C)c(-c2nc(C3CC3)no2)c(S(=O)(=O)NCC2CCCO2)c1C (stereo not drawn)	768
COc1cccc(C2CC(c3ccc4c(c3)OCO4)=NC3(CCN(C(C)C)CC3)N2)c1O (stereo not drawn)	599
COc1ccccc1C(CNC(=O)c1cc(=O)c2ccc(C)c(C)c2o1)N(C)C (stereo not drawn)	639
CC1=C(c2ccc(F)cc2)S(=O)(=O)N=C1N1CCCN(C(=O)c2cccc(F)c2)CC1	835
Cn1nc(C2CCN(S(=O)(=O)Cc3cccc(Cl)c3)CC2)n(C2CCCC2)c1=O	888
O=C(Nc1ccccc1F)C1CCCN(S(=O)(=O)Cc2ccccc2)C1 (stereo not drawn)	950
COC(=O)[C@@H]1Cc2c([nH]c3ccccc23)C(CCc2ccccc2)N1C(C)=O (stereo partly drawn)	983
O=C(NCCc1cccs1)c1ccc(CN2CC(=O)N3CCCCC3C2=O)cc1 (stereo not drawn)	692
CCc1nc2cc3c(cc2n1CC(=O)Nc1ccc(OC)cc1)OCCO3	640
CCN1c2ccccc2C(=O)NC12CCN(C(=O)c1cccc(C)c1)CC2	805
COc1ccc(CNC(=O)C2(C)Oc3cccnc3N(C)C2=O)cc1 (stereo not drawn)	748

SMILES	RP-LC retention time [s]
CCOc1ccc(-n2c(=O)c3sccc3n(Cc3nc(-c4cccc(C)c4)no3)c2=O)cc1	1100
O=C1CCCc2c1cc(C(=O)N1CCCCC1)c(=O)n2-c1ccc(F)cc1	704
COc1ccc(Cn2nccc2NC(=O)c2cc(=O)c3cc(Cl)ccc3o2)cc1	866
Cc1ccccc1CNC(=O)c1ncn2c1C(=O)N(C1CC1)C(C)(C(=O)NCc1ccc(F)cc1)C2 (stereo not drawn)	798
COc1ccc(C(=O)N2CCc3ccc(C(=O)Nc4ccc5c(c4)OCO5)cc32)cc1	773
Cc1ccc(-c2nc(-c3ccc(-c4noc(CNC(=O)c5ccccc5)n4)cc3)cs2)s1	1250
CC(C)N1C(=O)c2cccnc2Sc2cc(NC(=O)c3cc(Cl)ccc3F)ccc21	973
Cn1c(=O)c(-c2ccc(C(=O)NCc3ccc4c(c3)OCO4)cc2)nc2cccnc21	872
O=C(Nc1ccc(Nc2ccc(-n3cccn3)nn2)cc1)Nc1ccccc1Cl	791
Cc1noc(COC2CCN(C(=O)CCc3c(C)noc3C)CC2)n1	661
CCOC(=O)c1[nH]c(C)c(CCC(=O)N2CCC(C(=O)NC3CCCCCC3)CC2)c1C	823
COc1cccc(CN2CCC([C@H]3[C@@H](OC)C(=O)N3C(C)C)CC2)n1	602
CCn1c(C2CCN(C(=O)Nc3cccc(Cl)c3)CC2)cc(=O)n2nccc12	718
CC1=C(c2ccc(C)c(C)c2)S(=O)(=O)N=C1N1CCCN(C(=O)NCCC(C)C)CC1	906
CC(CN(CCS(=O)(=O)N1CCNCC1)C(=O)c1ccc(Br)cc1)c1ccccc1 (stereo not drawn)	735
O=S1(=O)C[C@H](N2CCN(c3cccc(Cl)c3)CC2)[C@@H](S(=O)(=O)c2ccc(F)cc2)C1	1040
Cc1cccn2cc(C(=O)NCc3cc(F)cc(F)c3)nc12	668
CCc1nc(-c2csc(S(=O)(=O)N3CCC(C(=O)Nc4ccc(Cl)cc4C)CC3)c2)no1	1180
CC(C)Cn1cc(CCNC(=O)Nc2ccc(Br)cc2)c2cccnc21	932
Cc1ccc(-c2nnc(-c3nc(NCCc4c(C)noc4C)c4ccccc4n3)o2)cc1	955
CCN1CCN(c2nc(F)c3c(c2F)S(=O)(=O)CCN3CCOC)CC1	581
O=c1cccnn1CCNS(=O)(=O)c1cccnc1	565

SMILES	RP-LC retention time [s]
COc1cccc(-n2nc(-c3nc(-c4ccccn4)no3)c3ccccc3c2=O)c1	1020
COc1ccc(CN2C(=O)[C@H](OC)[C@@H]2C2=CCN(S(=O)(=O)c3cccs3)CC2)cc1	872
Cn1c(=O)n(CCN2CCOCC2)c(=O)c2c1nc1n2CCCN1c1ccc(Cl)cc1	643
COc1ccc(-c2ncc(NC(=O)C3CCC3)cn2)cc1	848
CCc1ccc(C(C)NC(=O)C2CCN(Cc3cn(C)c4ccccc34)CC2)cc1 (stereo not drawn)	764
CC(C)Cn1cc(CCNC(=O)c2cncc(Br)c2)c2cccnc21	796
Cc1ccc(-c2ncc(NC(=O)c3ccc(Cl)s3)cn2)cc1	1140
CC(=O)N1CCc2ccccc2C1C(=O)NCc1ccc(F)cc1 (stereo not drawn)	762
O=C1CCCC(=O)N1CCS(=O)(=O)N1CCN(Cc2nc3ccccc3[nH]2)CC1	554
COCCc1noc([C@@H]2CN(Cc3cccc4[nH]ccc34)C[C@H]2CO)n1	554
Cc1cc(C)cc(-c2nnc(Cc3nc(-c4ccc(F)cc4)no3)o2)c1	1120
CC(C)NC(=O)N1CC(Oc2cccc(-c3nc(-c4ccccc4)no3)c2)C1	1010
O=C(C1=CN(c2cccc(Br)c2)c2ccccc2S1(=O)=O)N1CCCC1	819
O=C(NCc1ccccc1)c1cc2sccc2n1Cc1ccc(Cl)cc1	1170
Cc1sc(NC(=O)Cc2ccccc2)nc1-c1ccc2c(c1)N(C)C(=O)CO2	926
COc1ccc(-c2noc(C3CCCN3C(=O)c3cc(F)cc(F)c3)n2)cc1 (stereo not drawn)	1020
CC(C)(C)c1ccc(C(=O)CCCN2CCC(OC(c3ccccc3)c3ccccc3)CC2)cc1	1190
CCOC(=O)c1cccc(NC(=O)N2CCc3nc[nH]c3C2)c1	601
CCCN(C(=O)c1ccccc1)c1nc(-c2ccccc2)cs1	1310
Cn1nc(C(=O)N2CCCC(C(=O)Nc3ccccc3)C2)c2c1CCN(C(=O)Cc1cccs1)C2 (stereo not drawn)	748
CCCn1cc(S(=O)(=O)Nc2cc(C)cc(C)c2)c2cccnc21	946
CCCNC(=O)c1cc(C)nc2ccc(Cl)cc12	719
